Experiments:
[1] = target: 5-hydroxytryptamine receptor 2C (Homo sapiens, UniProt P28335); experiment: GPCRScan assay: inhibition of 5-HT2C; set-up: radioligand conc. used [nm] 1.0 – 2.5, parental cells HEK T
[2] = target: Tyrosine-protein kinase Fer (Homo sapiens) (UniProt P16591); experiment: fer (fps/fes related) tyrosine kinase Millipore kinase panel; details: Compound concentration 10.0 uM
[3] = target: Fibroblast growth factor receptor 2 (Homo sapiens) (UniProt P21802); experiment: fibroblast growth factor receptor 2 Millipore kinase panel; details: Compound concentration 10.0 uM
[4] = target: Receptor-type tyrosine-protein kinase FLT3 (Homo sapiens) (UniProt P36888); experiment: fms-related tyrosine kinase 3 Millipore kinase panel; details: Compound concentration 10.0 uM
[5] = target: G protein-coupled receptor kinase 6 (Homo sapiens) (UniProt P43250); experiment: G protein-coupled receptor kinase 6 Millipore kinase panel; details: Compound concentration 10.0 uM
[6] = target: Tyrosine-protein kinase ITK/TSK (Homo sapiens) (UniProt Q08881); experiment: IL2-inducible T-cell kinase Millipore kinase panel; details: Compound concentration 10.0 uM
[7] = target: Vascular endothelial growth factor receptor 2 (Homo sapiens) (UniProt P35968); experiment: kinase insert domain receptor Millipore kinase panel; details: Compound concentration 10.0 uM
[8] = target: Tyrosine-protein kinase Lck (Homo sapiens) (UniProt P06239); experiment: lymphocyte-specific protein tyrosine kinase (activated) Millipore kinase panel; details: Compound concentration 10.0 uM
[9] = target: Macrophage-stimulating protein receptor (Homo sapiens) (UniProt Q04912); experiment: macrophage stimulating 1 receptor Millipore kinase panel; details: Compound concentration 10.0 uM
[10] = target: Muscle, skeletal receptor tyrosine-protein kinase (Homo sapiens) (UniProt O15146); experiment: muscle, skeletal, receptor tyrosine kinase Millipore kinase panel; details: Compound concentration 10.0 uM
[11] = target: BDNF/NT-3 growth factors receptor (Homo sapiens) (UniProt Q16620); experiment: neurotrophic tyrosine kinase, receptor, type 2 Millipore kinase panel; details: Compound concentration 10.0 uM
[12] = target: Serine/threonine-protein kinase Nek11 (Homo sapiens) (UniProt Q8NG66); experiment: NIMA -related kinase 11 Millipore kinase panel; details: Compound concentration 10.0 uM
Homo sapiens = species: Homo sapiens; experiment: p21 protein -activated kinase 2 Millipore kinase panel; details: Compound concentration 10.0 uM
[13] = target: PI3-kinase p110-delta/p85-alpha (Homo sapiens) (UniProt P27986+O00329); experiment: phosphoinositide-3-kinase, catalytic, delta polypeptide Millipore kinase panel; assay type: protein-complex assay; details: Compound concentration 10.0 uM
[14] = target: Serine/threonine-protein kinase PLK1 (Homo sapiens) (UniProt P53350); experiment: polo-like kinase 1 Millipore kinase panel; details: Compound concentration 10.0 uM
[15] = target: Protein kinase C eta type (Homo sapiens) (UniProt P24723); experiment: protein kinase C, eta Millipore kinase panel; details: Compound concentration 10.0 uM
[16] = target: Protein kinase C iota type (Homo sapiens) (UniProt P41743); experiment: protein kinase C, iota Millipore kinase panel; details: Compound concentration 10.0 uM
[17] = target: cAMP-dependent protein kinase catalytic subunit PRKX (Homo sapiens) (UniProt P51817); experiment: protein kinase, X-linked Millipore kinase panel; details: Compound concentration 10.0 uM
[18] = target: Receptor-interacting serine/threonine-protein kinase 2 (Homo sapiens) (UniProt O43353); experiment: receptor-interacting serine-threonine kinase 2 Millipore kinase panel; details: Compound concentration 10.0 uM
[19] = target: Ribosomal protein S6 kinase alpha-4 (Homo sapiens) (UniProt O75676); experiment: ribosomal protein S6 kinase, 90kDa, polypeptide 4 Millipore kinase panel; details: Compound concentration 10.0 uM
[20] = target: Ribosomal protein S6 kinase alpha-6 (Homo sapiens) (UniProt Q9UK32); experiment: ribosomal protein S6 kinase, 90kDa, polypeptide 6 Millipore kinase panel; details: Compound concentration 10.0 uM
[21] = target: Serine/threonine-protein kinase STK11 (Homo sapiens) (UniProt Q15831); experiment: serine/threonine kinase 11 Millipore kinase panel; details: Compound concentration 10.0 uM
[22] = target: Tyrosine-protein kinase SYK (Homo sapiens) (UniProt P43405); experiment: spleen tyrosine kinase Millipore kinase panel; details: Compound concentration 10.0 uM
[23] = target: Angiopoietin-1 receptor (Homo sapiens) (UniProt Q02763); experiment: TEK tyrosine kinase, endothelial Millipore kinase panel; details: Compound concentration 10.0 uM
[24] = target: Activated CDC42 kinase 1 (Homo sapiens) (UniProt Q07912); experiment: tyrosine kinase, non-receptor, 2 Millipore kinase panel; details: Compound concentration 10.0 uM
[25] = target: Tyrosine-protein kinase ZAP-70 (Homo sapiens) (UniProt P43403); experiment: zeta-chain associated protein kinase 70kDa Millipore kinase panel; details: Compound concentration 10.0 uM
[26] = target: cGMP-dependent 3',5'-cyclic phosphodiesterase (Homo sapiens, UniProt O00408); experiment: hPDE2A PDE scan
[27] = target: High affinity cGMP-specific 3',5'-cyclic phosphodiesterase 9A (Homo sapiens, UniProt O76083); experiment: hPDE9A PDE scan
[28] = target: 5-hydroxytryptamine receptor 2A (Homo sapiens) (UniProt P28223); experiment: h5HT2A Cerep panel; details: Compound concentration 10.0 uM
[29] = target: Type-1 angiotensin II receptor (Homo sapiens) (UniProt P30556); experiment: hAT1 Cerep panel; details: Compound concentration 10.0 uM
[30] = target: Cannabinoid receptor 1 (Homo sapiens) (UniProt P21554); experiment: hCB1 Cerep panel; details: Compound concentration 10.0 uM
[31] = target: C-C chemokine receptor type 1 (Homo sapiens) (UniProt P32246); experiment: hCCR1 Cerep panel; details: Compound concentration 10.0 uM
[32] = target: Galanin receptor type 2 (Homo sapiens) (UniProt O43603); experiment: hGAL2 Cerep panel; details: Compound concentration 10.0 uM
[33] = target: Neuropeptide Y receptor type 2 (Homo sapiens) (UniProt P49146); experiment: hNPY2 Cerep panel; details: Compound concentration 10.0 uM
[34] = target: Adenosine receptor A1 (Homo sapiens) (UniProt P30542); experiment: hA1 Cerep panel; details: Compound concentration 10.0 uM
[35] = target: Alpha-1A adrenergic receptor (Rattus norvegicus) (UniProt P43140); experiment: rAa1 Cerep panel; details: Compound concentration 10.0 uM
[36] = target: B2 bradykinin receptor (Homo sapiens) (UniProt P30411); experiment: hBK2 Cerep panel; details: Compound concentration 10.0 uM
[37] = glyine Cerep panel; details: Compound concentration 10.0 uM
[38] = target: T1, Muscarinic acetylcholine receptor M4 (Homo sapiens) (UniProt P08173); experiment: hM4 Cerep panel; details: Compound concentration 10.0 uM
T1 sequence (whole entry): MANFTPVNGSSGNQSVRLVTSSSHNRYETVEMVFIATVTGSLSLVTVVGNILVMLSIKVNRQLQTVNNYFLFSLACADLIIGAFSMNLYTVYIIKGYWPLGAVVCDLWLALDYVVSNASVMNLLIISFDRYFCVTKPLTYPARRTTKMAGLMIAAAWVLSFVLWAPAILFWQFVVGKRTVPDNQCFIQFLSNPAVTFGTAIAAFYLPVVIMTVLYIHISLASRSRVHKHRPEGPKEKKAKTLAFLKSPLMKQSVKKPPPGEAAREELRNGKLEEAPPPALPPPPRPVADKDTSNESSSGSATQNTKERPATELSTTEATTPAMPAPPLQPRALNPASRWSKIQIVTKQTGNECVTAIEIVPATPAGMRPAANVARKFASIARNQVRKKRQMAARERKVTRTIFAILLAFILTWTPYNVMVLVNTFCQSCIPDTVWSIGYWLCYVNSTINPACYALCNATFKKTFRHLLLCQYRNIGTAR

[39] = target: Mu-type opioid receptor (Homo sapiens) (UniProt P35372); experiment: hOP3 Cerep panel; details: Compound concentration 10.0 uM
[40] = target: Amine oxidase [flavin-containing] A (Homo sapiens, UniProt P21397); experiment: hMAOA Cerep panel; details: 10 µM, compound concentration 10 uM
[41] = target: Glucocorticoid receptor (Homo sapiens) (UniProt P04150); experiment: hGR Cerep panel; details: Compound concentration 10.0 uM
[42] = target: Histamine H2 receptor (Homo sapiens) (UniProt P25021); experiment: hH2 Cerep panel; details: Compound concentration 10.0 uM
[43] = target: Tyrosine-protein kinase Lck (Homo sapiens) (UniProt P06239); experiment: hLck Cerep panel; details: Compound concentration 10.0 uM
[44] = target: Translocator protein (Homo sapiens) (UniProt P30536); experiment: hTSPO Cerep panel; details: Compound concentration 10.0 uM
[45] = target: Histamine H2 receptor (Homo sapiens) (UniProt P25021); details: Compound concentration 10.0 uM

Tyrosine-protein kinase Lck (Homo sapiens), sequence (P06239 2-509 limits assumed): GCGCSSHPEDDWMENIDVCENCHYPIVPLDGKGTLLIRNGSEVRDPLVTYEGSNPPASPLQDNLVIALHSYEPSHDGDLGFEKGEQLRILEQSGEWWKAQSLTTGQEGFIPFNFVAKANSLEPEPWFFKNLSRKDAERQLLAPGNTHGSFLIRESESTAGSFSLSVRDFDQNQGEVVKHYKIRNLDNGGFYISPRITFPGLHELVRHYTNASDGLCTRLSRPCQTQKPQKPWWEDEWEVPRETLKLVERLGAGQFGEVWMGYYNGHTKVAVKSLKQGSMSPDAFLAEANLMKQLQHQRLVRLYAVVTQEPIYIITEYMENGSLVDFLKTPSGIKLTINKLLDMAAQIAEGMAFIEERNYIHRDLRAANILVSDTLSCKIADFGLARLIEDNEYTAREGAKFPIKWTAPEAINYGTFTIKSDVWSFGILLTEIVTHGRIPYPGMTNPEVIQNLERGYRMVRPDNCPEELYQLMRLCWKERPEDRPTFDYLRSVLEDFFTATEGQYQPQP
Histamine H2 receptor (Homo sapiens), sequence (P25021 whole entry): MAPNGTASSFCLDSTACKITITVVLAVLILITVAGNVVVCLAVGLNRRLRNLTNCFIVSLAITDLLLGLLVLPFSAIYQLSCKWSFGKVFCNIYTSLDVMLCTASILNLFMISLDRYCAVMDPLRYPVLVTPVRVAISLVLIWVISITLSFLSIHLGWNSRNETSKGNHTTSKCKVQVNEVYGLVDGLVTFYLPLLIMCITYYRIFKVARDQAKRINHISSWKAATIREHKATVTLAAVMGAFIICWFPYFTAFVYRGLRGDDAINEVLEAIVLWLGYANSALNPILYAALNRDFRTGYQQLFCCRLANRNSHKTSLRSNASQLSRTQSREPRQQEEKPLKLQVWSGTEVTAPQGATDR
5-hydroxytryptamine receptor 2C, sequence (P28335 whole entry): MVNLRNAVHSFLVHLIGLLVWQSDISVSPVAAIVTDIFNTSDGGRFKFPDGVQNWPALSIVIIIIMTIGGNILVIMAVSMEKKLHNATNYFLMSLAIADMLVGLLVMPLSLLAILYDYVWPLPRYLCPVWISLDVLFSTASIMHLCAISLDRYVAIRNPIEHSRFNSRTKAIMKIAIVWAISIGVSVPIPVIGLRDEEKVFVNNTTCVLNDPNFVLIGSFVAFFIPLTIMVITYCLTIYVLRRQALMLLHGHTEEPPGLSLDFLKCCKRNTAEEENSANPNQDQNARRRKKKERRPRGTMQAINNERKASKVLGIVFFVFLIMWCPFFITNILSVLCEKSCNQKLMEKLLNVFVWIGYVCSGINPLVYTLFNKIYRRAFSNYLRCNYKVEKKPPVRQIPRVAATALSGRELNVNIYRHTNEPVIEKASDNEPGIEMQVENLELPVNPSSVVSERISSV
Protein kinase C iota type (Homo sapiens), sequence (P41743 whole entry): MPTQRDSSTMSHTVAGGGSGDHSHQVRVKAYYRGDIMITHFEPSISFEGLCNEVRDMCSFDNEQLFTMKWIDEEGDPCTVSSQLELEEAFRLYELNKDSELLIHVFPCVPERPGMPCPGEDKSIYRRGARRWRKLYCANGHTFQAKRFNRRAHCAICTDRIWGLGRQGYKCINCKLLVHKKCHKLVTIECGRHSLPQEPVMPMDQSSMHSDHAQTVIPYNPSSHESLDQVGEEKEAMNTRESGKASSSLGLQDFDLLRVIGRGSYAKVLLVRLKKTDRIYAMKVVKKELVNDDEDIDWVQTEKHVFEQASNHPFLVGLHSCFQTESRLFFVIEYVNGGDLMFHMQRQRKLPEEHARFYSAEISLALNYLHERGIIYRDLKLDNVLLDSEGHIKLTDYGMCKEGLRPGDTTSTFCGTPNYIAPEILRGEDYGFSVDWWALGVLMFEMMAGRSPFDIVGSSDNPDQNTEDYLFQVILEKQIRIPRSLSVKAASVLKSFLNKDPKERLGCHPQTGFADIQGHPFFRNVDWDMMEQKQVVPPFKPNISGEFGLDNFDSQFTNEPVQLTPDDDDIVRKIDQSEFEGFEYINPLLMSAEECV
Type-1 angiotensin II receptor (Homo sapiens), sequence (P30556 whole entry): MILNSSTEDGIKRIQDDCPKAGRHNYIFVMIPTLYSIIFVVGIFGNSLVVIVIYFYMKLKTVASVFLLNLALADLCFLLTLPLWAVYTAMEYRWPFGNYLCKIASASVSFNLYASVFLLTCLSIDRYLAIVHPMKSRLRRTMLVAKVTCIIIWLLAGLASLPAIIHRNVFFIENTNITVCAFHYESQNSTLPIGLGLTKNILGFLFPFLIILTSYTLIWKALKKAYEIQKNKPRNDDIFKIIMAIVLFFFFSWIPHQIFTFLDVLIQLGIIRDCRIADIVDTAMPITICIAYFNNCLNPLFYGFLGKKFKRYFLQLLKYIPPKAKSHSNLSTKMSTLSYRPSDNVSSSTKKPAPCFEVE
Serine/threonine-protein kinase Nek11 (Homo sapiens), sequence (Q8NG66 whole entry): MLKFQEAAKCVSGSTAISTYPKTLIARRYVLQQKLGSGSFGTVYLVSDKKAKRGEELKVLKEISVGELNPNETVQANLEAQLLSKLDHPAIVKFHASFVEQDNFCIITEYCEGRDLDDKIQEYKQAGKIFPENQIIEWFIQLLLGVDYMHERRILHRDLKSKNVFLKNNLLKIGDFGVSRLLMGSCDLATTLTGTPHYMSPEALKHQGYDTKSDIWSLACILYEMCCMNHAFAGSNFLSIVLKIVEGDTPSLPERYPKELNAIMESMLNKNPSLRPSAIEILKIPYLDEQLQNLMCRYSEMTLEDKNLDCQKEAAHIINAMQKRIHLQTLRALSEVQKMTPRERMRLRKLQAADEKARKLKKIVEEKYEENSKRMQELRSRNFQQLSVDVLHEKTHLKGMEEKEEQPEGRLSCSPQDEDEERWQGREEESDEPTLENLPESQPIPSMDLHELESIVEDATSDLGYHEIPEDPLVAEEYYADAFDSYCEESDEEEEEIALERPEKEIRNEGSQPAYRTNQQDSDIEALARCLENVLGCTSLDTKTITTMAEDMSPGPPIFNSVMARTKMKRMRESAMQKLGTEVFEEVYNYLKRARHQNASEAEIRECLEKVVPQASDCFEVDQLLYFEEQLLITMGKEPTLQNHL
B2 bradykinin receptor (Homo sapiens), sequence (P30411 whole entry): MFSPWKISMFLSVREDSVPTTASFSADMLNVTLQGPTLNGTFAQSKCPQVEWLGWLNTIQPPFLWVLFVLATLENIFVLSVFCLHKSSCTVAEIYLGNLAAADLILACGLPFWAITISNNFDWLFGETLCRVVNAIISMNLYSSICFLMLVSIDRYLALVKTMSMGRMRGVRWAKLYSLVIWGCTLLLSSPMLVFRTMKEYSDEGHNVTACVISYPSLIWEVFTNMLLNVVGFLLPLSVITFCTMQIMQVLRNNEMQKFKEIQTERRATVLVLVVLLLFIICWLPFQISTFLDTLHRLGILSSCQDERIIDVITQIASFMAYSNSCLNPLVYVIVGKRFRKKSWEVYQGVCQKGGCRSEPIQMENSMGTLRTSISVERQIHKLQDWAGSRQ
Fibroblast growth factor receptor 2 (Homo sapiens), sequence (P21802 22-821 limits assumed): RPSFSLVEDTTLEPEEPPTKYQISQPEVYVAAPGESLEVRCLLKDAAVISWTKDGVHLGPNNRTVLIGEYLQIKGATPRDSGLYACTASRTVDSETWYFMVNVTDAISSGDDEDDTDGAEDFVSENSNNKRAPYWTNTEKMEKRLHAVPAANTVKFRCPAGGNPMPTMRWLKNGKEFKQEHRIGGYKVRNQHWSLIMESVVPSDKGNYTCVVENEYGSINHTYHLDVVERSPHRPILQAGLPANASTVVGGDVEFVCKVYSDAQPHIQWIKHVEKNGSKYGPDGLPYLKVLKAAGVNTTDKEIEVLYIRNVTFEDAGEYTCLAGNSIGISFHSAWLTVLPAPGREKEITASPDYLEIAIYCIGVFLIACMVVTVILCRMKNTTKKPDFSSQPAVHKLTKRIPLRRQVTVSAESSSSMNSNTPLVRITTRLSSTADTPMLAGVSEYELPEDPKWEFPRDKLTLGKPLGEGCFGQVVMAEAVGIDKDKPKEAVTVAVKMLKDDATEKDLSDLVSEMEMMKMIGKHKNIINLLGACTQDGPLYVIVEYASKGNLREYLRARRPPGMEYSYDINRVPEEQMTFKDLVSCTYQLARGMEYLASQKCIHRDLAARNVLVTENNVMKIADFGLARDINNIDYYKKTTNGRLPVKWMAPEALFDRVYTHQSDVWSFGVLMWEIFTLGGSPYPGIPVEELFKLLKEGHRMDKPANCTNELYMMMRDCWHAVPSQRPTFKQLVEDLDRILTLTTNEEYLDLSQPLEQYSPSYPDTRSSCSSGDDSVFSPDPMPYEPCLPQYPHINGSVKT
Amine oxidase [flavin-containing] A, sequence (P21397 whole entry): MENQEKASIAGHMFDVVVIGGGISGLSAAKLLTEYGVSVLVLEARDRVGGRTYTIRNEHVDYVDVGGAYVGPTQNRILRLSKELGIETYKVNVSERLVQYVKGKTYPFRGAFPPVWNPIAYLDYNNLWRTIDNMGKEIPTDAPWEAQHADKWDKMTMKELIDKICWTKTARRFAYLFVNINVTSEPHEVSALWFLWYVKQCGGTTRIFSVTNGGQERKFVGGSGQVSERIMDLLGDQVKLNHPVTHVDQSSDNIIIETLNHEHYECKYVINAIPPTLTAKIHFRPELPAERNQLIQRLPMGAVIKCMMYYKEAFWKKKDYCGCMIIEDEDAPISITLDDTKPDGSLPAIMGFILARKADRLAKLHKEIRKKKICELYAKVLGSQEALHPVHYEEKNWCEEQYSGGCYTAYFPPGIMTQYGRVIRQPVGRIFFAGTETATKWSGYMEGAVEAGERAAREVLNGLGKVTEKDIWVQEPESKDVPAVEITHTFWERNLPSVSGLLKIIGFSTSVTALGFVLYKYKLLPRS
Translocator protein (Homo sapiens), sequence (P30536 whole entry): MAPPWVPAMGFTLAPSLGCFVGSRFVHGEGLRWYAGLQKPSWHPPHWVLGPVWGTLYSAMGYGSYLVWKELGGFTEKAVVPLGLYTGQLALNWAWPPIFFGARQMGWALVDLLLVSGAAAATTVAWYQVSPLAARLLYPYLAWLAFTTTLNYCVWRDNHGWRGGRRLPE

In the case of `COCCc1ccc(-c2c(C)nc3c(N4CCOCC4)ccnn23)cn1` [JNJ-42396302], the Ki [1] is reported as 2.2 µM, the inhibition [2] is reported as 0% and the inhibition [3] is reported as -5%. For the same molecule, the inhibition [4] was 6%, the inhibition [5] was 3% and the inhibition [6] was 1%. For the same molecule, the inhibition [7] was -4%, the inhibition [8] was -4% and the inhibition [9] was 3%. It also gave an inhibition [10] of -6%, an inhibition [11] of -5% and an inhibition [12] of -2%. It also gave an inhibition (Homo sapiens) of -3%, an inhibition [13] of 1% and an inhibition [14] of 0%. For the same molecule, the inhibition [15] was -2%, the inhibition [16] was 3% and the inhibition [17] was 4%. It also gave an inhibition [18] of -6%, an inhibition [19] of 2% and an inhibition [20] of -10%. The inhibition [21] was 4%, the inhibition [22] was -7% and the inhibition [23] was 1%. For the same molecule, the inhibition [24] was 0%, the inhibition [25] was 4% and the Ki [26] was 32 µM. The Ki [27] was 33 µM, the effect [28] was 4.05% and the effect [29] was 14.4%. It also gave an effect [30] of 4.05%, an effect [31] of -7.45% and an effect [32] of 6.7%. For the same molecule, the effect [33] was 4.45%, the effect [34] was 11.3% and the effect [35] was -2.55%. The effect [36] was 7.1%, the effect [37] was -23.1% and the effect [38] was -3.05%. For the same molecule, the effect [39] was 2.15%, the effect [40] was 13.8% and the effect [41] was 1.9%. The effect [42] was 18.1%, the effect [43] was -2.4% and the effect [44] was 2.8%. For the same molecule, the inhibition [45] was 12.9%.

— ChEMBL document CHEMBL4800727 (2021)
